Test results published in US20260132103A1, “Bumetanide Derivatives for the Therapy of Stroke and Other Neurological Diseases/Disorders Involving NKCCs” (University of Pittsburgh - Of the Commonwealth System of …, priority 2018, published 2026).

Tests used:
GL26 and SB28-GFP cells [1] = test: Rubidium uptake assay (Rb+ influx); format: cell-based, mouse
Procedure: FIGS. 4A-4B: Rb^+ influx was measured in GL26 and SB28-GFP cells in either isotonic (10 min) or hypertonic (5 min) solutions using ICR 8000 machine. (4A) Cells were exposed to isotonic or hypertonic solutions with BMT (10 μM) or STS66 (10 μM). (4B) Cells were exposed to isotonic or hypertonic solutions with different concentrations of STS66 (0 to 40 μM). Results are expressed as means±SEM from four independent experiments. **P<0.01, ***P<0.001, ****P<0.0001.
FIG. 5: GL26 cells and SB28-GFP cells were first exposed to BMT (10 μM) and different concentration of STS66 (10, 20 and 40 μM) for 48 h, and Rb^+ influx was measured in either isotonic (10 min) or hypertonic (5 min) solutions using ICR 8000 machine. Results are expressed as means±SEM from four independent experiments. *P<0.05, **P<0.01, ***P<0.001, ****P<0.0001.
GL26 and SB28-GFP cells were seeded in 24-well plates and the rubidium uptake assay was performed on cells that were 60% confluent. TMZ was added to cells for 48 hr incubation. The medium was then removed from the wells and washed with wash buffer (Rb^+ free). After wash buffer was aspirated, isotonic and hypertonic solutions (contain Rb^+) with BMT were added, and cells were incubated at 37° C. for 5 min. […] The Rb^+ concentration was measured using an automated atomic absorption spectrophotometer (Ion Channel Reader, ICR-8000; Aurora Biomed, Vancouver, Canada).

GL26 and SB28-GFP cells [2] = test: BrdU proliferation assay; format: cell-based, mouse; conditions: 48 h drug treatment, compared to BMT
Procedure: FIG. 7: BrdU incorporation of GL26 cells and SB28-GFP cells following 48 h drug treatment. Data are means±SEM from three independent experiments. **P<0.01, ***p<0.001, ****p<0.0001.
Cell proliferation of GL26 and SB28-GFP cells was measured by quantifying BrdU incorporation. GL26 cells (5×10^3 cells/well) or SB28-GFP cells (1×10^3 cells/well) were seeded in 96-well plates in 100 μL media. After 24 hours in culture, cells were incubated with fresh medium plus the following reagents: DMSO vehicle (Con-Veh), BMT (B, 10 μM), TMZ (100 μM), or TMZ+B for 48 h. BrdU was added in the last 4 h period of the whole 48 h incubation. The incorporation of BrdU into newly synthesized DNA of proliferating cells was detected by using a peroxidase-conjugated antibody which reacts with the thymidine analogue BrdU. Bound anti-BrdU-peroxidase conjugated antibody was measured by a substrate reaction, and then quantified colorimetrically by an ELISA plate reader (Spectra MAX 190, Molecular Devices, Sunnyvale, CA) at dual wavelength of 450/550 nm.

## CCCCNc1cc(CNCC(F)(F)F)cc(S(N)(=O)=O)c1Oc1ccccc1 [STS66, 3-(Butylamino)-2-phenoxy-5-[(2,2,2-trifluoroethylamino)methyl]benzenesulfonamide]
GL26 and SB28-GFP cells [1]; drugs incubated for 48 h, BMT 10 μM, STS66 10, 20 and 40 μM
  Rb+ influx inhibition, 48 h incubation: inhibited the Rb^+ influx better than BMT
GL26 and SB28-GFP cells [1]; drugs incubated for short time: isotonic (10 min) or hypertonic (5 min) solutions, STS66 0 to 40 μM
  Rb+ influx inhibition, short incubation: does not inhibit Rb^+ influx
GL26 and SB28-GFP cells [2]
  inhibition of cell proliferation (BrdU incorporation): more inhibition of GL26 and SB28-GFP cell proliferation than BMT
